According to PubChem BioAssay (NCI):
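96-well plates; 48 h exposure; 5 concentrations. Endpoints by linear interpolation between flanking doses. Not reached: highest tested concentration assigned. TGI denotes the concentration required for complete inhibition of growth.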

Legend:
Test in all cases: growth of human tumour cells (NCI), 48 h
[1] = system: OVCAR-5 ovarian
[2] = system: DMS 273 small cell lung
[3] = system: SNB-19 CNS
[4] = system: 786-0 renal
[5] = system: K-562 leukemia
[6] = system: SW-620 colon
[7] = system: SF-539 CNS
[8] = system: HL-60(TB) leukemia
[9] = system: HCT-116 colon
[10] = system: RXF 393 renal
[11] = system: ACHN renal
[12] = system: DLD-1 colon
[13] = system: MOLT-4 leukemia
[14] = system: UO-31 renal
[15] = system: DMS 114 small cell lung
[16] = system: SK-MEL-28 melanoma
[17] = system: UACC-62 melanoma
[18] = system: IGROV1 ovarian
[19] = system: HOP-18 NSCLC
[20] = system: SK-MEL-2 melanoma
[21] = system: RPMI-8226 leukemia
[22] = system: SK-MEL-5 melanoma
[23] = system: HOP-92 NSCLC
[24] = system: NCI-H522 lung
[25] = system: LOX IMVI melanoma
[26] = system: NCI-H460 lung
[27] = system: CCRF-CEM leukemia
[28] = system: SF-268 CNS
[29] = system: OVCAR-4 ovarian
[30] = system: SN12C renal
[31] = system: HT29 colon
[32] = system: OVCAR-8 ovarian
[33] = system: SF-295 CNS
[34] = system: SK-OV-3 ovarian
[35] = system: SR leukemia
[36] = system: TK-10 renal
[37] = system: LXFL 529 NSCLC
[38] = system: U251 CNS
[39] = system: CAKI-1 renal
[40] = system: M14 melanoma
[41] = system: COLO 205 colon
[42] = system: SNB-75 CNS
[43] = system: OVCAR-3 ovarian
[44] = system: HCC-2998 colon
[45] = system: M19-MEL melanoma
[46] = system: KM12 colon
[47] = system: HOP-62 NSCLC
[48] = system: HCT-15 colon
[49] = system: A549 NSCLC
[50] = system: MALME-3M melanoma
[51] = system: NCI-H23 lung
[52] = system: A498 renal
[53] = system: SNB-78 CNS
[54] = system: EKVX NSCLC
[55] = system: KM20L2 colon
[56] = system: NCI-H226 lung
[57] = system: UACC-257 melanoma

SMILES: O=[N+]([O-])c1ccc(C2CC(c3ccc(NCc4nc5ccccc5[nH]4)cc3)=NO2)cc1 (configuration not stated)
- TGI [1]: > 100 µM
- TGI [2]: > 100 µM
- TGI [3]: > 100 µM
- TGI [4]: > 100 µM
- TGI [5]: > 100 µM
- TGI [6]: > 100 µM
- TGI [7]: > 100 µM
- TGI [8]: > 100 µM
- TGI [9]: > 100 µM
- TGI [10]: > 100 µM
- TGI [11]: > 100 µM
- TGI [12]: > 100 µM
- TGI [13]: > 100 µM
- TGI [14]: > 100 µM
- TGI [15]: > 100 µM
- TGI [16]: > 100 µM
- TGI [17]: > 100 µM
- TGI [18]: > 100 µM
- TGI [19]: > 100 µM
- TGI [20]: > 100 µM
- TGI [21]: > 100 µM
- TGI [22]: 32.5 µM
- TGI [23]: > 100 µM
- TGI [24]: > 100 µM
- TGI [25]: > 100 µM
- TGI [26]: > 100 µM
- TGI [27]: > 100 µM
- TGI [28]: > 100 µM
- TGI [29]: > 100 µM
- TGI [30]: > 100 µM
- TGI [31]: > 100 µM
- TGI [32]: > 100 µM
- TGI [33]: > 100 µM
- TGI [34]: > 100 µM
- TGI [35]: > 100 µM
- TGI [36]: > 100 µM
- TGI [37]: 97.9 µM
- TGI [38]: > 100 µM
- TGI [39]: > 100 µM
- TGI [40]: > 100 µM
- TGI [41]: > 100 µM
- TGI [42]: > 100 µM
- TGI [43]: 57.4 µM
- TGI [44]: > 100 µM
- TGI [45]: > 100 µM
- TGI [46]: > 100 µM
- TGI [47]: > 100 µM
- TGI [48]: > 100 µM
- TGI [49]: > 100 µM
- TGI [50]: > 100 µM
- TGI [51]: > 100 µM
- TGI [52]: 73.5 µM

SMILES: COc1ccc2c(c1)[n+](=O)c(C(=O)CC(=O)C(=O)Nc1cccc(Cl)c1C)c(C)n2[O-]
- TGI [1]: > 100 µM
- TGI [2]: > 100 µM
- TGI [3]: > 100 µM
- TGI [53]: > 100 µM
- TGI [54]: > 100 µM
- TGI [4]: > 100 µM
- TGI [5]: > 100 µM
- TGI [6]: > 100 µM
- TGI [7]: > 100 µM
- TGI [8]: > 100 µM
- TGI [9]: > 100 µM
- TGI [10]: > 100 µM
- TGI [11]: > 100 µM
- TGI [13]: > 100 µM
- TGI [14]: > 100 µM
- TGI [55]: > 100 µM
- TGI [16]: > 100 µM
- TGI [17]: > 100 µM
- TGI [18]: > 100 µM
- TGI [19]: > 100 µM
- TGI [20]: > 100 µM
- TGI [21]: > 100 µM
- TGI [22]: > 100 µM
- TGI [23]: > 100 µM
- TGI [24]: 58 µM
- TGI [25]: > 100 µM
- TGI [26]: > 100 µM
- TGI [27]: 71.2 µM
- TGI [28]: > 100 µM
- TGI [29]: > 100 µM
- TGI [30]: > 100 µM
- TGI [31]: > 100 µM
- TGI [32]: > 100 µM
- TGI [33]: > 100 µM
- TGI [34]: > 100 µM
- TGI [56]: > 100 µM
- TGI [35]: > 100 µM
- TGI [36]: > 100 µM
- TGI [37]: > 100 µM
- TGI [38]: > 100 µM
- TGI [39]: > 100 µM
- TGI [40]: > 100 µM
- TGI [41]: > 100 µM
- TGI [57]: > 100 µM
- TGI [42]: > 100 µM
- TGI [43]: 94.7 µM
- TGI [44]: > 100 µM
- TGI [45]: > 100 µM
- TGI [46]: > 100 µM
- TGI [47]: > 100 µM
- TGI [48]: > 100 µM
- TGI [49]: > 100 µM
- TGI [50]: > 100 µM
- TGI [51]: > 100 µM
- TGI [52]: > 100 µM
